How the values were obtained:
[1] = target: T1, mouse DPP1 (Mus musculus, UniProt P97821); test: Mouse DPP1 Enzyme IC50 Assay; format: biochemical; details: active mouse DPP1 enzyme, H-Gly-Arg-AMC substrate
T1 construct: Test articles were applied to active mouse DPP1 enzyme; purchased R&D Systems
Procedure: Test articles were applied to active mouse DPP1 enzyme (R&D Systems; Minneapolis, MN) in Assay Buffer (50 mM MES pH 5.5, 50 mM NaCl, 5 mM DTT) in a total reaction volume of 125 μL. 25 μL of compound in Assay Buffer plus 5% DMSO was first added to 50 μL of active mouse DPP1 enzyme at a concentration of […] and allowed to pre-incubate for 10 minutes at 37° C. after which 50 μL of 1000 μM H-Gly-Arg-AMC substrate (Bachem; St. Torrance, CA) was added, giving final substrate concentration of 400 μM and a final DMSO concentration of 1%. Substrate cleavage was measured for 90 minutes at 37° C., with fluorescence at Excitation/Emission 350/450 nm measured every 5 minutes. DPP1 concentration was interpolated based on its activity relative to a standard curve of recombinant active mouse DPP1 enzyme. IC50 values for each compound were calculated via the XLFit (IDBS Version 5.3.1.3) Add-On to Microsoft Excel using the four parameter fit equation y= (A+ ((B−A)/(1+ ((C/x)^D)))), which appears as equation number 205 (4 Parameter Logistic Model or Sigmoidal Dose-Response Model) in XLFit. Default constraints were used for each Parameter. IC50 was defined as the compound concentration at which 50% of enzyme activity was inhibited when compared to the no-compound control.

[2] = system: cathepsin G (CatG); test: CatG activity in lysates of mouse bone marrow progenitor cells differentiated into neutrophils under DPP1 inhibitor; format: cell-based; details: for max inhibition of CatG activity observed: regardless of day
Procedure: Male or female C57BL/6 mice at the age of 8-14 weeks were used.
The two femurs and two tibias were removed out of a single mouse and gauze was used to remove the muscles and residue tissues. A sterile environment for surgical instruments and surgical sites is maintained. The bones were put into one 15-mL tube with cold sterile RPMI medium and placed on ice until further processing is performed.
A fresh 50-mL tube is placed on ice and a fresh 40/70 μm cell strainer (CLS431750, Sigma) is inserted into the top of the Falcon tube. Both ends of two femurs and two tibias are cut with bone cutters and flush bone marrow of all bones from one single mouse are placed into the cell strainer. 5-mL of ice-cold RPMI (RPMI medium containing 10 mM HEPES, pH 7.4) was used for each femur or tibia using a blunt needle (25 G needle), totaling about 20 mL per tube.
The cell suspension is centrifuged at 600×g for 5 min at 4° C. and the supernatant is carefully discarded.
The cell pellet is resuspended in 400 μL of ice-cold MACS buffer (PH7.2 PBS plus 0.5% BSA and 2 mM EDTA) for one adult mouse (optimized for 4 bones/mouse).
100 μL Direct Lineage Cell Depletion Cocktail (which is enough for 100 million cells depletion) is added. The components are mixed well and incubated for 10 min. at 2° C.-8° C.
Magnetic separation LS Column (MACS, Miltenyi, 130 042 401) is prepared by placing it in the magnetic field of MACS Separator and rinsing with 3 mL of ice-cold MACS buffer.
Cell suspension is applied onto the column. Flow-through containing unlabeled cells, representing the enriched lineage negative cells, is collected.
Column is washed with 3×3 mL of ice-cold MACS buffer. Unlabeled cells that pass through are collected, representing the enriched lineage negative cells, and combined with the flow-through from prior step.
The cell suspension is centrifuged at 600×g for 5 min at 4° C., and the supernatant is carefully discarded. The pellet is washed once with 10 mL ice cold IMDM medium (IMDM GlutaMax (Gibco, 31980030) plus 10% FCS and 1% PS).
The cell pellet is resuspended with 2 mL ice-cold complete IMDM medium and the cells are counted. The cells are then ready for neutrophil differentiation.
The resulting undifferentiated bone marrow cells are in complete IMDM medium (IMDM with 10% FBS and 1% antibiotics); and the concentration of cells is adjusted to 1×10^5 cells/mL, supplemented with 50 ng/ml of SCF (BioLegend, 579704) and 50 ng/ml of IL 3 (BioLegend, 575504). The cells are subgrouped and the respective DPP1 inhibitors are added accordingly. Cells are then cultivated in a flask at 37° C. for 3 days.
Cells are checked each day for expansion and maintaining a final concentration between 2-10×10^5 cells/ml. On day 3, cells are counted. 3-4 million cells for each group are harvested and lystates prepared for NSPs activity detection. The left cells are resuspended at 2× 10^5 cells/mL in fresh medium supplemented with 50 ng/ml of SCF, 50 ng/ml of IL 3 and 50 ng/ml of G-CSF (BioLegend, 574604). The DPP1 inhibitors are refreshed in the medium. Cells are then cultivated in a flask at 37° C. for another 2 days.
On day 5, cells are counted. 3-4 million cells/condition are harvested and the cells are lysed to prepare samples for NSPs activity detection. The remaining cells are collected by centrifugation at 600×g for 5 min. The left cells are washed once in 1×PBS. After the wash, the pelleted cells are resuspended in complete IMDM medium at 4-6×10^5 cells/mL supplemented with 50 ng/ml of G-CSF only. The DPP1 inhibitors in the medium are refreshed. Cells incubate for additional 2 days, for a total of 7 days from day of harvest. On day 7, cells are counted. 3-4 million cells/condition are harvested and the cell lysed to prepare samples for NSPs activity detection.
3-4 million cells are collected into Eppendorf tubes. Samples are spun down at 600×g, 4° C. for 5 min. The supernatant is removed and resuspended in 1 mL PBS. […]

T1 sequence (P97821 25-134 limits assumed): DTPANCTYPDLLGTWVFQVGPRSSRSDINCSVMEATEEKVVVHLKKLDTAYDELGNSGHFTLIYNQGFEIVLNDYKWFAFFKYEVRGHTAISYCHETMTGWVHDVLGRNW
T1 sequence (P97821 231-393 limits assumed): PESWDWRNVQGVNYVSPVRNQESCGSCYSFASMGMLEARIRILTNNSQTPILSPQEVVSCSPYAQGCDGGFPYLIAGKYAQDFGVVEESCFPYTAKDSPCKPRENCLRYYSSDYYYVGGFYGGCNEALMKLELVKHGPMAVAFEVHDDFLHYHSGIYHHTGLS
T1 sequence (P97821 394-462 limits assumed): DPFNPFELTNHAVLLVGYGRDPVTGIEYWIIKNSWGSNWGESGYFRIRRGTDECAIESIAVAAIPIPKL

Cn1c(=O)oc2ccc(-c3ccc(C[C@@H](C#N)NC(=O)[C@@H]4CNC[C@H](O)CO4)cc3)cc21 (single isomer, unassigned) [INSM-201, (2S,6S*)—N-[(1S)-1-cyano-2-[4-(3-methyl-2-oxo-2,3-dihydro-1,3-benzoxazol-5-yl)phenyl]ethyl]-6-hydroxy-1,4-oxazepane-2-carboxamide]
IC50 [1]: 2.3 ± 0.4 nM | reduction in CatG activity [2]: concentration-dependent reduction in CatG activity | CatG Activity (% reduction from control) ([2]; 0.02 μM, Day 3): 46% | CatG Activity (% reduction from control) ([2]; 0.02 μM, Day 5): 27% | CatG Activity (% reduction from control) ([2]; 0.02 μM, Day 7): 78% | CatG Activity (% reduction from control) ([2]; 0.1 μM, Day 3): 90% | CatG Activity (% reduction from control) ([2]; 0.1 μM, Day 5): 94% | CatG Activity (% reduction from control) ([2]; 0.1 μM, Day 7): 98% | max inhibition of CatG activity observed ([2]; at 1 μM): ~ 95% | CatG inhibition at low dose, fluctuations depending on the day (range) ([2]; low dose, range over days): 27-78%

COC1CNC[C@@H](C(=O)N[C@H](C#N)Cc2ccc(-c3ccc4oc(=O)n(C)c4c3)cc2)OC1 (mixture of isomers) [INSM-202, (6-rac)-(2S)—N-[(1S)-1-cyano-2-[4-(3-methyl-2-oxo-2,3-dihydro-1,3-benzoxazol-5-yl)phenyl]ethyl]-6-methoxy-1,4-oxazepane-2-carboxamide]
IC50 [1]: 0.7 ± 0.2 nM | CatG Activity (% reduction from control) ([2]; 0.02 μM, Day 3): 93% | CatG Activity (% reduction from control) ([2]; 0.02 μM, Day 5): 94% | CatG Activity (% reduction from control) ([2]; 0.02 μM, Day 7): 99% | CatG Activity (% reduction from control) ([2]; 0.1 μM, Day 3): 100% | CatG Activity (% reduction from control) ([2]; 0.1 μM, Day 5): 100% | CatG Activity (% reduction from control) ([2]; 0.1 μM, Day 7): 100% | max inhibition of CatG activity observed [2]: ~ 95%

COC1CNC[C@@H](C(=O)N[C@H](C#N)Cc2ccc(-c3ccc4oc(=O)n(C)c4c3)cc2)OC1 (single isomer, unassigned) [INSM-203, (2S,6R*)—N-[(1S)-1-cyano-2-[4-(3-methyl-2-oxo-2,3-dihydro-1,3-benzoxazol-5-yl)phenyl]ethyl]-6-methoxy-1,4-oxazepane-2-carboxamide]
IC50 [1]: 0.3 ± 0.1 nM | CatG Activity (% reduction from control) ([2]; 0.02 μM, Day 3): 93% | CatG Activity (% reduction from control) ([2]; 0.02 μM, Day 5): 97% | CatG Activity (% reduction from control) ([2]; 0.02 μM, Day 7): 94% | CatG Activity (% reduction from control) ([2]; 0.1 μM, Day 3): 99% | CatG Activity (% reduction from control) ([2]; 0.1 μM, Day 5): 100% | CatG Activity (% reduction from control) ([2]; 0.1 μM, Day 7): 96% | max inhibition of CatG activity observed [2]: ~ 95%

— patent US20260242365A1, “USES OF CERTAIN 1,4-OXAZEPANE-2-CARBOXAMIDES AS DPP1 INHIBITORS” (Insmed Incorporated, priority 2023, published 2026)
